Measurements taken from patent US7153685B2 (The Board of Trustees of the University of Illinois, priority 2002, dated 2006).

Assays:
[1] = tested on: mutant and chimeric estrogen receptors
[2] = biological target: T1, N-79 (Homo sapiens, UniProt P03372, E203W/G400V/H216G/Q214A); conditions: CHO-S cells, 10 nM OHT
Description: (§1) These fragments were digested with KpnI and BamHI and then purified from agarose gels. […] To create C-129, this ER fragment was digested with XbaI and KpnI and then cloned together with the DNA fragment containing 129 amino acids of VP16 into 5.9 kb vector generated by digestion of CMV-hER with XbaI and BamHI. The same strategy was adopted to create C-79 using the DNA fragment containing 79 amino acids of VP16. Therefore, the expression of these chimeras is driven by the same CMV promoter as that of ER-3M. […] The amplified PCR product was digested with NcoI and NotI. […] This fragment and the NcoI/NotI PCR fragment were then inserted together into the 4.3 kb vector, pGL3-ATL8/PAL-LUC, which was created by digesting ATL8/PAL-LUC completely with NcoI and partially with XbaI so that the luciferase gene was replaced by N-79.
(§2) A second plasmid also containing 8 copes of pS2 PAL drives expression of the reporter gene (FIG. 11, ATL8/PAL-LUC).

[3] = biological target: ER 4.3 (Homo sapiens, UniProt P03372, E203W/G215R/G400V/H216P/N217T/Q214V)
Description: (§3) HepG2 human hepatoma cells were maintained in a humidified 5% CO2 incubator at 37° C. in Dulbecco's Modified Eagle's Medium (DMEM; Sigma; St. Louis, Mo.) supplemented with 10 % charcoal-dextran-stripped fetal bovine serum (CD-FBS; Atlanta Biologicals, Inc; Atlanta, Ga.), 50,000 U/l of penicillin, and 50 mg/liter streptomycin (Life Technologies, Inc.). MCF-7 cells were routinely maintained in DMEM/Nutrient Mixture F-12 (DMEM/F12) supplemented with 10% heat-inactived FBS, 50,000 U/l of penicillin, and 50 mg/l streptomycin. CHO-S cells were maintained in DMEM/F12 supplemented with 10% heat-inactivated FBS (CD-FBS when ERs were being expressed) or 10% CD-new born calf serum (CD-NBCS, when reporter activity by different ligands were measured), 29.2 mg/l L-glutamine (Sigma), and 50,000 U/l of penicillin and 50 mg/l streptomycin.
Transient transfections in HepG2 cells was accomplished using calcium phosphate co-precipitation (Ausubel et al., 1987). Briefly, cells were plated in 12-well microplates at a density of 1×10^5 cells/well. The next day, the medium was replaced, and 2–6 hours later, precipitated calcium phosphate:DNA co-crystals were added. […] Activity was determined using the dual luciferase assay protocol according to the manufacturer's directions (Promega) on a Monolight 2010 luminometer (Analytical Luminescence, San Diego, Calif.) […]

[4] = biological target: T1, N-79; assay: Autoregulated expression system (ATL8/PAL-N-79 + ATL8/PAL-LUC) in HepG2 cells; format: cell-based; design: expressed in transfected cells; host or cells: HepG2 (A20); 231 human breast cancer cells (A21); CHO-S (A22); conditions: HepG2 human hepatoblastoma cells, 10 nM OHT
Description: as §1, §2

[5] = tested on: wild type ER and the ER mutants
Description: HepG2 human hepatoma cells were maintained in a humidified 5% CO2 incubator at 37° C. in Dulbecco's Modified Eagle's Medium (DMEM; Sigma; St. Louis, Mo.) supplemented with 10 % charcoal-dextran-stripped fetal bovine serum (CD-FBS; Atlanta Biologicals, Inc; Atlanta, Ga.), 50,000 U/l of penicillin, and 50 mg/liter streptomycin (Life Technologies, Inc.). MCF-7 cells were routinely maintained in DMEM/Nutrient Mixture F-12 (DMEM/F12) supplemented with 10% heat-inactived FBS, 50,000 U/l of penicillin, and 50 mg/l streptomycin.
Briefly, cells were plated in 12-well microplates at a density of 1×10^5 cells/well. The next day, the medium was replaced, and 2–6 hours later, precipitated calcium phosphate:DNA co-crystals were added. After 12–16 hours, the cells were shocked for 3 minutes with 20% glycerol in Tris-buffered saline, pH 7.4. Fresh medium and (if any) hormones were added. For MCF-7 and 231 cells, transient transfection was carried out using the Tfx™-20 reagent (Promega; Madison, Wis.) according to the manufacturer's direction with minor changes. Briefly, 1×10^5 cells were plated in each well of 12-well microplates one day before transfection. A 1:3 ratio of DNA to lipid was used. The DMEM/F12 medium without serum was used as carrier for the DNA-lipid mixture. After 1 hour incubation with the DNA-lipid-DMEM/F12 at 37° C., the cells were transferred to fresh DMEM/F12 supplemented with 10% CD-FBS, 50,000 U/I of penicillin, 50 mg/l streptomycin and hormones. Transfection on CHO—S cells was described as above for the preparation of ERs extraction except the medium contained 10% CD-NBCS. The cells subjected to either transfection method were harvested 48 hours post-transfection. Reporter assays were performed by lysing the cells in situ with 250 μl of passive lysis buffer (Promega).
The data represent the mean±S.E. of three independent transfections.

[6] = biological target: T1, N-79; assay: Autoregulated expression system (ATL8/PAL-N-79 + ATL8/PAL-LUC) in 231 human breast cancer cells; format: cell-based; design: expressed in transfected cells; host or cells: HepG2 (A20); 231 human breast cancer cells (A21); CHO-S (A22); conditions: 10 nM OHT
Description: as §1, §2

[7] = biological target: T2, wild type hERα (Homo sapiens, UniProt P03372, G400V); assay: Ligand-dependent luciferase reporter transactivation in transfected HepG2 cells
T2 sequence (P03372 1-595 G400V): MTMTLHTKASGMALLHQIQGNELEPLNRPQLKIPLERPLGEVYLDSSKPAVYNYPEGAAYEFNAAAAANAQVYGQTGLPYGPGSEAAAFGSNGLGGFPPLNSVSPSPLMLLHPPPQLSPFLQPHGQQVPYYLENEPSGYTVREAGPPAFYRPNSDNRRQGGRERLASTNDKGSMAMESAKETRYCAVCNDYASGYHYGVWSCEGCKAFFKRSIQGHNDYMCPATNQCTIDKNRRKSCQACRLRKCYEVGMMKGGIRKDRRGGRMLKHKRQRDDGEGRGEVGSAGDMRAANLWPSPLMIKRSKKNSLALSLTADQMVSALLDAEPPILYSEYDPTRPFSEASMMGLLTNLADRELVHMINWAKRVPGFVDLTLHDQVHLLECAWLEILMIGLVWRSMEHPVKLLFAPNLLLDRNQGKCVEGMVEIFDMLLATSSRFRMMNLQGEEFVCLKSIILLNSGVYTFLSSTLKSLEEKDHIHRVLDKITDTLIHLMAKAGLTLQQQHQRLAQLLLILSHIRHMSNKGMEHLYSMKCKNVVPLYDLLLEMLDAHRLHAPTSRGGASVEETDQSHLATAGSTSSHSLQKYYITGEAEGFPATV
Description: as §3
Transient transfections in HepG2 cells was accomplished using calcium phosphate co-precipitation (Ausubel et al., 1987). Briefly, cells were plated in 12-well microplates at a density of 1×10^5 cells/well. The next day, the medium was replaced, and 2–6 hours later, precipitated calcium phosphate:DNA co-crystals were added. After 12–16 hours, the cells were shocked for 3 minutes with 20% glycerol in Tris-buffered saline, pH 7.4. Fresh medium and (if any) hormones were added. For MCF-7 and 231 cells, transient transfection was carried out using the Tfx™-20 reagent (Promega; Madison, Wis.) according to the manufacturer's direction with minor changes. Briefly, 1×10^5 cells were plated in each well of 12-well microplates one day before transfection. A 1:3 ratio of DNA to lipid was used. The DMEM/F12 medium without serum was used as carrier for the DNA-lipid mixture. After 1 hour incubation with the DNA-lipid-DMEM/F12 at 37° C., the cells were transferred to fresh DMEM/F12 supplemented with 10% CD-FBS, 50,000 U/I of penicillin, 50 mg/l streptomycin and hormones. Transfection on CHO—S cells was described as above for the preparation of ERs extraction except the medium contained 10% CD-NBCS. The cells subjected to either transfection method were harvested 48 hours post-transfection. Reporter assays were performed by lysing the cells in situ with 250 μl of passive lysis buffer (Promega). Activity was determined using the dual luciferase assay protocol according to the manufacturer's directions (Promega) on a Monolight 2010 luminometer (Analytical Luminescence, San Diego, Calif.)
Transient transfections of HepG2 cells were carried out and luciferase activity determined.

[8] = biological target: ER mutant 4.3 (Homo sapiens, UniProt P03372, E203W/G215R/G400V/H216P/N217T/Q214V); conditions: 10 μM ligand
Description: HepG2 human hepatoma cells were maintained in a humidified 5% CO2 incubator at 37° C. in Dulbecco's Modified Eagle's Medium (DMEM; Sigma; St. Louis, Mo.) supplemented with 10 % charcoal-dextran-stripped fetal bovine serum (CD-FBS; Atlanta Biologicals, Inc; Atlanta, Ga.), 50,000 U/l of penicillin, and 50 mg/liter streptomycin (Life Technologies, Inc.).
Transient transfections in HepG2 cells was accomplished using calcium phosphate co-precipitation (Ausubel et al., 1987). Briefly, cells were plated in 12-well microplates at a density of 1×10^5 cells/well. The next day, the medium was replaced, and 2–6 hours later, precipitated calcium phosphate:DNA co-crystals were added. After 12–16 hours, the cells were shocked for 3 minutes with 20% glycerol in Tris-buffered saline, pH 7.4. Fresh medium and (if any) hormones were added. For MCF-7 and 231 cells, transient transfection was carried out using the Tfx™-20 reagent (Promega; Madison, Wis.) according to the manufacturer's direction with minor changes. Briefly, 1×10^5 cells were plated in each well of 12-well microplates one day before transfection. A 1:3 ratio of DNA to lipid was used. […] Activity was determined using the dual luciferase assay protocol according to the manufacturer's directions (Promega) on a Monolight 2010 luminometer (Analytical Luminescence, San Diego, Calif.) […]

[9] = biological target: ER3M (Homo sapiens, UniProt P03372, E203W/G400V/H216G/Q214A)
[10] = biological target: ER 2 (Homo sapiens, UniProt P03372, E203W/G215R/G400V/Q214A); conditions: ATL2/PAL-LUC, 10 nM ligand
Description: as §3
Transient transfections in HepG2 cells was accomplished using calcium phosphate co-precipitation (Ausubel et al., 1987). Briefly, cells were plated in 12-well microplates at a density of 1×10^5 cells/well. The next day, the medium was replaced, and 2–6 hours later, precipitated calcium phosphate:DNA co-crystals were added. […] Activity was determined using the dual luciferase assay protocol according to the manufacturer's directions (Promega) on a Monolight 2010 luminometer (Analytical Luminescence, San Diego, Calif.)

[11] = ATL8/PAL-LUC, 2.5 ng expression plasmid, 10 nM OHT

Chain of ER3M (P03372 whole entry E203W/Q214A/H216G/G400V): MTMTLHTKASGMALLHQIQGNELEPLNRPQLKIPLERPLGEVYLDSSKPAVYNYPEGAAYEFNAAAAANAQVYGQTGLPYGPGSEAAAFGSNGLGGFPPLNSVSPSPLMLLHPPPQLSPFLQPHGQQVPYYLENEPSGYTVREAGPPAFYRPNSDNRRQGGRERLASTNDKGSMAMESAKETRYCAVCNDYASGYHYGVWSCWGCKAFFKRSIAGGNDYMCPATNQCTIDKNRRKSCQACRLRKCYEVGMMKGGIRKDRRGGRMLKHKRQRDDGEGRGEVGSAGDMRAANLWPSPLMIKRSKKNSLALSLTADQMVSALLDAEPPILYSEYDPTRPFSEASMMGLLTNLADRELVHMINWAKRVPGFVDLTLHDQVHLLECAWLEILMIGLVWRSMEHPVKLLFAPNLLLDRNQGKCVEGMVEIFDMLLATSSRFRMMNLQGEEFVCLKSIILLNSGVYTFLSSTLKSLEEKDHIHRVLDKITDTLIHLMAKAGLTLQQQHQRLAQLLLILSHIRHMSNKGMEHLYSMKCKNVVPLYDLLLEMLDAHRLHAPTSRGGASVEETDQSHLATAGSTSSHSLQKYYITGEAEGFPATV
T1 sequence (P03372 with tags, fused parts or gaps E203W/Q214A/H216G/G400V): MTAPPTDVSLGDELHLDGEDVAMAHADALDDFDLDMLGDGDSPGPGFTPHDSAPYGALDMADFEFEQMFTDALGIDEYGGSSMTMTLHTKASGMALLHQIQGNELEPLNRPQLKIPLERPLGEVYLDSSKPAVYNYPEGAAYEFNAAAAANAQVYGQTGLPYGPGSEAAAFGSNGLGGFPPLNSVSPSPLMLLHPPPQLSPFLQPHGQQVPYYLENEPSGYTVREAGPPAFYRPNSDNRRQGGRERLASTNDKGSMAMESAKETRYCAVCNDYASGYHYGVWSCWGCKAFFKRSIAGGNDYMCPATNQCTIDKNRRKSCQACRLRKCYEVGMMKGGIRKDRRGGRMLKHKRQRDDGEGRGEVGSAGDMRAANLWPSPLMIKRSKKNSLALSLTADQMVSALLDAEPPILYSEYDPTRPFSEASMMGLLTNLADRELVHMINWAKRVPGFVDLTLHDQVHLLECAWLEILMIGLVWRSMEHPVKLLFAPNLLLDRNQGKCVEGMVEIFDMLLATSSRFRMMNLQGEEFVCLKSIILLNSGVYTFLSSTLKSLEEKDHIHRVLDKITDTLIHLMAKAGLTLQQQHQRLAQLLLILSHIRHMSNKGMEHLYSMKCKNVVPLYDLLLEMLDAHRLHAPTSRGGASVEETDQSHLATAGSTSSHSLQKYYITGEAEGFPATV
Chain of ER 4.3 (P03372 whole entry E203W/Q214V/G215R/H216P/N217T/G400V): as the sequence (P03372 whole entry E203W/Q214A/H216G/G400V) above, with A214V, G215R, G216P, N217T counted along it
Chain of ER mutant 4.3 (P03372 whole entry E203W/Q214V/G215R/H216P/N217T/G400V): as the sequence (P03372 whole entry E203W/Q214A/H216G/G400V) above, with A214V, G215R, G216P, N217T counted along it
Chain of ER 2 (P03372 whole entry E203W/Q214A/G215R/G400V): as the sequence (P03372 whole entry E203W/Q214A/H216G/G400V) above, with G215R, G216H counted along it

In the case of O=C(c1ccc(OCCN2CCCCC2)cc1)c1c(-c2ccc(O)cc2)sc2cc(O)ccc12 [Raloxifene], the “transcription activation when bound to mutant and chimeric estrogen receptors” value [1] is reported as “fail to activate transcription”.

In the case of 4-hydroxytamoxifen [OHT], the “induction upon addition of OHT” value [2] is reported as 28 fold, the “transactivation by OHT compared with MOX” value ([3]; ATL2/PAL-LUC, 10 nM ligand) is reported as “equal to that seen with MOX” and the “increase in reporter gene expression by OHT” value [3, 11] is reported as 172 fold. For the same compound, the “increase in luciferase activity upon addition of OHT” value [4] was 1027 fold, the “agonist character of OHT when pS2 PAL supplied the ERE” value ([5]; ATL2/PAL-LUC, 10 nM ligand, ER mutants) was “full agonist” and the “transactivation in response to OHT, percent of that seen with MOX” value ([5]; ATL2/pS2 ERE-LUC, 10 nM ligand) was “about 30%”. The “OHT transactivation with four copies of pS2 PAL compared with MOX” value ([5]; ATL4/PAL-LUC, 10 nM ligand) was “same level of transactivation as MOX”, the “OHT activity, percent of that seen with MOX” value ([5]; ATL4/cERE-LUC, wild type hERα and ERs 3M and 4.3, 10 nM ligand) was 20–25% and the “OHT-mediated activation of transcription on different versions of pS2 PAL reporters” value ([5]; summary, pS2 PAL reporters and the ER mutants) was 70–1000 fold. For the same compound, the “increase in luciferase activity upon addition of OHT” value [6] was 813 fold, the “agonism on ATL8/cERE-LUC, OHT compared with moxestrol” value ([7]; 10 nM ligand) was “weaker agonist than moxestrol” and the “transactivation of ATL8/PAL-LUC, OHT compared with MOX” value ([7]; 10 nM ligand) was “higher with OHT than with MOX”. The “transactivation level on two copies of pS2 PAL” value ([7]; ATL2/PAL-LUC, 10 nM ligand) was “undetectable”, the “agonist activity when bound to the cERE” value ([7]; ATL2/cERE-LUC, 10 nM OHT) was “weak agonist activity” and the “induction of luciferase activity from ATL8/PAL” value ([7]; ATL8/PAL-LUC, 5 ng expression plasmid, 10 nM OHT) was 52 fold. The “transactivation by OHT, percent of that seen with E2” value ([8]; ATL4/PAL-LUC) was 45%, the “OHT-mediated transactivation, percent of that observed with estradiol (E2)” value ([8]; ATL4/cERE-LUC) was 13% and the “transactivation by OHT compared with MOX” value ([9]; ATL2/PAL-LUC, 10 nM ligand) was “exceeded that seen with MOX”. The “increase in reporter gene expression by OHT” value [9, 11] was 117 fold, the “maximal level of transactivation” value ([9]; ATL8/PAL-LUC, tamoxifen compared with OHT) was “similar” and the “transactivation by OHT compared with MOX” value [10] was “equal to that seen with MOX”.
